Seven compounds from article PMC6199744, “Development of Chemical Proteomics for the Folateome and Analysis of the Kinetoplastid Folateome” (ACS Infectious Diseases, 2018) can be followed below.

Common to all, as to type: binding
The target in assay [1] is T1, HeLa cell extract proteins (Homo sapiens, UniProt P04406).
T1 construct: endogenous in cells; host or cells: HeLa cell extract

The target of assay [2] is T2, HeLa cell extract proteins (Homo sapiens, UniProt P23526).
T2 construct: endogenous in cells; host or cells: HeLa cell extract

Assay [3] concerns the target T3, HeLa cell extract proteins (Homo sapiens, UniProt P31327).
T3 construct: endogenous in cells; host or cells: HeLa cell extract
T3 sequence (P31327 39-1500): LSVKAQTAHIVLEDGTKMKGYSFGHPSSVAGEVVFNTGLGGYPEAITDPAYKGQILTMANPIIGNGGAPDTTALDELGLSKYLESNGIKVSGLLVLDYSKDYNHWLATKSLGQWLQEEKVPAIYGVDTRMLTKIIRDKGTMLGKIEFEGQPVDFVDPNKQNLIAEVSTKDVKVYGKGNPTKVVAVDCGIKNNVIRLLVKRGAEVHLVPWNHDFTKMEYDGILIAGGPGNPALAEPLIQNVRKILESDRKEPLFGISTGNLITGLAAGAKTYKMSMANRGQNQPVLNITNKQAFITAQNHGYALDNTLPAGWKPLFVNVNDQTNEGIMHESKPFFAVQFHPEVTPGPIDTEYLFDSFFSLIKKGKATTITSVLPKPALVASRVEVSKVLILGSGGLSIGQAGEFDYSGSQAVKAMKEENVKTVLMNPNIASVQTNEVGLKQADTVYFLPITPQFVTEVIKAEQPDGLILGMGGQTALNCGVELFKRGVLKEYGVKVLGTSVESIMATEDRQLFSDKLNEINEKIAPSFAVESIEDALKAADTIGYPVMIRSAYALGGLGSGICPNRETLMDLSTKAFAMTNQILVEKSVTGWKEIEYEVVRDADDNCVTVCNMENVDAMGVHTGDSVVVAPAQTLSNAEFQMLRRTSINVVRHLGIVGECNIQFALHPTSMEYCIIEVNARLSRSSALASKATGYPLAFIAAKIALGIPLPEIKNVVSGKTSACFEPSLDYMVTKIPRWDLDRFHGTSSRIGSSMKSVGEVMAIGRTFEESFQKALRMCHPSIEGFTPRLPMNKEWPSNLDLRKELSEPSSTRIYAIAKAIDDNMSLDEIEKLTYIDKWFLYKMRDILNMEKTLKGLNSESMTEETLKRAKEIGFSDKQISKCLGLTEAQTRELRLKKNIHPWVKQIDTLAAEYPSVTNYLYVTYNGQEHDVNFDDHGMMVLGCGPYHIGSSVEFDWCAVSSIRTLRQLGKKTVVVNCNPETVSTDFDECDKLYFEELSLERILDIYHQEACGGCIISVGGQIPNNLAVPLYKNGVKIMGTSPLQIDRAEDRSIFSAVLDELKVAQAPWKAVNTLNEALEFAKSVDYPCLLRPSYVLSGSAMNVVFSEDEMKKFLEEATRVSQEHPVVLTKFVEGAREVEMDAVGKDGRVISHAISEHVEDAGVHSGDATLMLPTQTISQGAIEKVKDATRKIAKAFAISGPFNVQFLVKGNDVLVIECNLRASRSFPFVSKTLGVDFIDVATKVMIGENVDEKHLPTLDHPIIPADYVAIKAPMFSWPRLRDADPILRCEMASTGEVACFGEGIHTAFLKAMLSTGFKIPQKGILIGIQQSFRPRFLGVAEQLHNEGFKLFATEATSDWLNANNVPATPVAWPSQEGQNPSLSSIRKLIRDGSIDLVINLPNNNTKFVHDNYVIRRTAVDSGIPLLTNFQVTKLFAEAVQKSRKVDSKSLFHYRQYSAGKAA

The target of assay [4] is T4, HeLa cell extract proteins (Homo sapiens, UniProt Q86VP6).
T4 construct: endogenous in cells; host or cells: HeLa cell extract
T4 sequence (Q86VP6 1-1230): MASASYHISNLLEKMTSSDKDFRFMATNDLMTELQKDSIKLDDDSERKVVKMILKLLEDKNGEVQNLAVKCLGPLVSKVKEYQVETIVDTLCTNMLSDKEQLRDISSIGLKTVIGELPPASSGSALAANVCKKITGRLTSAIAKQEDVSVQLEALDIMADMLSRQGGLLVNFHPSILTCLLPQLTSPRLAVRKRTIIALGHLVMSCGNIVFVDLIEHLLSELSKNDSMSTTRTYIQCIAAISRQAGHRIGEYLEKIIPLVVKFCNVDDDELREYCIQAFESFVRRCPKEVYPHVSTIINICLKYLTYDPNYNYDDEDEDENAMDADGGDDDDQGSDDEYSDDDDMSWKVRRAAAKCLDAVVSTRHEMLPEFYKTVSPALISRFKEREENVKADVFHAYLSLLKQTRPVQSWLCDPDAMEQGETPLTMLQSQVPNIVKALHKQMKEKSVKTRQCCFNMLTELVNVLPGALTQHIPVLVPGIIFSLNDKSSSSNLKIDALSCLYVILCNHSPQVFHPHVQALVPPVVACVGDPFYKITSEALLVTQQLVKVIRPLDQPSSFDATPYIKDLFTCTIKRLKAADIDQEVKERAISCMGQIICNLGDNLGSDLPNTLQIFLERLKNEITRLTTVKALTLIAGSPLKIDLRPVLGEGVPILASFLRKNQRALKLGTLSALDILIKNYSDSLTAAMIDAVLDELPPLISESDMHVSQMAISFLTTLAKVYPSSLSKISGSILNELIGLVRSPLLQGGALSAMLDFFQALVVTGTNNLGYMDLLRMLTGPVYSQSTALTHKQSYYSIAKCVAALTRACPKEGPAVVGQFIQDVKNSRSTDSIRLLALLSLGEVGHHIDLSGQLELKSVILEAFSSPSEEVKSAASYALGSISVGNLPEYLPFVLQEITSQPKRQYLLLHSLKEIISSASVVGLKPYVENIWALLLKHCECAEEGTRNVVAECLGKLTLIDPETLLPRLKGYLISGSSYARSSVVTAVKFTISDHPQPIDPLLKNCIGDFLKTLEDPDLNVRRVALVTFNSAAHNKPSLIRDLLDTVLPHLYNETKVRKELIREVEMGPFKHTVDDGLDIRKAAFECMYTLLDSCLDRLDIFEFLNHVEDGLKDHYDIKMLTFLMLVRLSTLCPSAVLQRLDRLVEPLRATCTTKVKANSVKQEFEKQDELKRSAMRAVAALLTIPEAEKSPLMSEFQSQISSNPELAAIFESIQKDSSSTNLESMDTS

The target of assay [5] is T5, HeLa cell extract proteins (Homo sapiens, UniProt Q8TEM1).
T5 construct: endogenous in cells; host or cells: HeLa cell extract

Setting [6] is: HeLa, protein G3P1_HUMAN (GLYCERALDEHYDE-3-PHOSPHATE DEHYDROGENASE, MUSCLE.).
[7] abbreviates: HeLa, protein GAPDH (39 KDA PROTEIN.).

Like-named read-outs stand apart in the source and are kept apart here.

T1 sequence (P04406 whole entry): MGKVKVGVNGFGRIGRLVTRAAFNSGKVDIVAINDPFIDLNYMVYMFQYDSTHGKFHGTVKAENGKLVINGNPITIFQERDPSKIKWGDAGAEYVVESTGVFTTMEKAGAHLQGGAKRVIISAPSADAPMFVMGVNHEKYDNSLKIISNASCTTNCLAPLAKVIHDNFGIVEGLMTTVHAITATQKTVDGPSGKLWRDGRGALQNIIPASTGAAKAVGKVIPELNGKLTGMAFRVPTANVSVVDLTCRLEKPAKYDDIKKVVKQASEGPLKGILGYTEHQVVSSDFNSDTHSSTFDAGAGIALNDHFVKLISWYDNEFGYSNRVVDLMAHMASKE
T2 sequence (P23526 whole entry): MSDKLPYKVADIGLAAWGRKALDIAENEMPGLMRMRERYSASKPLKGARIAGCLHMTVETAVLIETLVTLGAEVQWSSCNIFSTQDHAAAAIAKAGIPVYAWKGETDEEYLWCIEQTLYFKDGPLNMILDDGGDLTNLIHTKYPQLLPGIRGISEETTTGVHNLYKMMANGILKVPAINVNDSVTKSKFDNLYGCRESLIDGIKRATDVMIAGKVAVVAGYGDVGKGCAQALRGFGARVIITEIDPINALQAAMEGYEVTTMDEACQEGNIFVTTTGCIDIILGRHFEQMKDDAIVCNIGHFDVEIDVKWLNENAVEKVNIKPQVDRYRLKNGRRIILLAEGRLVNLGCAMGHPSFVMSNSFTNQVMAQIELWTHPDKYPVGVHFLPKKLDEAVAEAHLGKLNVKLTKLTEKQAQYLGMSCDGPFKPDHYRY
T5 sequence (Q8TEM1 27-1887): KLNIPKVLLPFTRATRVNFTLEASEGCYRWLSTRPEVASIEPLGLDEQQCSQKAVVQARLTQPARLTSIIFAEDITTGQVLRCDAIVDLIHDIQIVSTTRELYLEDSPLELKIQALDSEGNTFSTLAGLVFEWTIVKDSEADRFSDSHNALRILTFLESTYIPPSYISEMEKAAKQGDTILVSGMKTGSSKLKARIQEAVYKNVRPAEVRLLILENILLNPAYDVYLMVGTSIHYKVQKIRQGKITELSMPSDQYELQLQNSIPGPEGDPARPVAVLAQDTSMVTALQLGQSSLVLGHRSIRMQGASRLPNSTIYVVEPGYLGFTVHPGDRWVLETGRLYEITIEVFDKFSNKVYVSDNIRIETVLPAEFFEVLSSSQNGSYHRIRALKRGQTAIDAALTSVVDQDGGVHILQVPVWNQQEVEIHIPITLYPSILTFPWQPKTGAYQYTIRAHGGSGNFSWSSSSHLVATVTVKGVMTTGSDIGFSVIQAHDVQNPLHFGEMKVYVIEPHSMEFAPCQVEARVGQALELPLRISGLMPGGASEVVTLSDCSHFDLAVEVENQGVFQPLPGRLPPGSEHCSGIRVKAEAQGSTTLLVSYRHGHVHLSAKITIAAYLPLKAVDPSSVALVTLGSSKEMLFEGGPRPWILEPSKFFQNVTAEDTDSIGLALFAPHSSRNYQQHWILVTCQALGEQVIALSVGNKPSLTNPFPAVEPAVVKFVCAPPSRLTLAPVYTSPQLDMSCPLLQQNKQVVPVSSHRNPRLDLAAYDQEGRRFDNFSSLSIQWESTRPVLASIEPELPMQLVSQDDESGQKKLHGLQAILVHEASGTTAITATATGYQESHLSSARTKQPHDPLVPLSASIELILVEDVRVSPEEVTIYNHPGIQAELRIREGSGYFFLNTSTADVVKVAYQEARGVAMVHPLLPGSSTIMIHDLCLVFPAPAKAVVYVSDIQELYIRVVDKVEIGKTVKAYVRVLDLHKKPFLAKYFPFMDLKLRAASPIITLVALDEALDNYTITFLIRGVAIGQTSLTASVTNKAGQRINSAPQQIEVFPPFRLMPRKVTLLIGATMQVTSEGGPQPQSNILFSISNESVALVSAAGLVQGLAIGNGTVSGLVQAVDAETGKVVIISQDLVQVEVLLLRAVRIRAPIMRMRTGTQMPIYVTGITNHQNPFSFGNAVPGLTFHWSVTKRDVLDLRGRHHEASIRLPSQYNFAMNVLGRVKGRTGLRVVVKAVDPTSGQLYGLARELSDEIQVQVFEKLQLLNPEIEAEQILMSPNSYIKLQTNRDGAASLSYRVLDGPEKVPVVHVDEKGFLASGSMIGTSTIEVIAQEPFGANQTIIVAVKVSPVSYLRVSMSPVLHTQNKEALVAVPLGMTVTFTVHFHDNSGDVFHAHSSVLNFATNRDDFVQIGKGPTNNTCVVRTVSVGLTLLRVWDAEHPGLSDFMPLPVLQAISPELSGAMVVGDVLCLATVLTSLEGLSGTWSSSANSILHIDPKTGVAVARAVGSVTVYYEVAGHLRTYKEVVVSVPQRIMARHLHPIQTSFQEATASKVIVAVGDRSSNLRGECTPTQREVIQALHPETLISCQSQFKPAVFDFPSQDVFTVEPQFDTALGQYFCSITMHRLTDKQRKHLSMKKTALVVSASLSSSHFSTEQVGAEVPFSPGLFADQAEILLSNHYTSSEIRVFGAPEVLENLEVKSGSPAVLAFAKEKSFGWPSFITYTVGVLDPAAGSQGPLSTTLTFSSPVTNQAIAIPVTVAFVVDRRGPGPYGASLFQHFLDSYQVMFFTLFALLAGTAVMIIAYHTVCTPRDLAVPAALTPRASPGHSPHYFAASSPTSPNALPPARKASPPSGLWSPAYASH

With `CCCCCCOc1cccc(Cc2cnc(N)nc2N)c1` [compound 2], the “fold changes relative to vehicle control” value worked out at 2.61 fold in assay [1] (setting [6]); 2.46 fold in assay [1] (setting [7]); 1.26 in assay [2] (protein AHCY, HeLa); 1.61 in assay [3] (protein CPS1, HeLa); 1.95 in assay [4] (protein CAND1, HeLa); 0.98 in assay [5] (captured protein NUP210, HeLa).
As for `NCCOCCOCC(=O)Nc1nc2ncc(CNc3ccc(C(=O)NC(CCC(=O)O)C(=O)O)cc3)nc2c(=O)[nH]1` (centres unmarked) [compound 6], the “fold changes relative to vehicle control” value in assay [1] (protein GAPDH, HeLa) was found to be 1.35; in assay [2] (HeLa, protein AHCY) it was 1.13; in assay [3] (HeLa, captured protein CPS1), 1.27; in assay [4] (protein CAND1, HeLa), 1.11; in assay [5] (HeLa, captured protein NUP210) it was 1.07.
For `CCCCCCOc1ccc(Cc2cnc(N)nc2N)cc1` [compound 1], the “fold changes relative to vehicle control” value is 1.39 fold in assay [1] (setting [6]); 1.52 fold in assay [1] (setting [7]); 1.01 in assay [2] (protein AHCY, HeLa); 1.27 in assay [3] (protein CPS1, HeLa); 1.15 in assay [4] (protein CAND1, HeLa); 0.74 in assay [5] (captured protein NUP210, HeLa).
For `Nc1nc2c(c(=O)[nH]1)N(C=O)C(CNc1ccc(C(=O)N[C@@H](CCC(=O)O)C(=O)O)cc1)CN2` (some centres unmarked) [LEU, leucovorin], the “fold changes relative to vehicle control” value in assay [1] (protein GAPDH, HeLa) is reported as 1.01; in assay [2] (HeLa, protein AHCY), 0.98; in assay [3] (HeLa, captured protein CPS1), 1.13; in assay [4] (protein CAND1, HeLa) it was 0.99; in assay [5] (HeLa, captured protein NUP210) it was 0.97.
The like results for `NCCCNc1ccc(C(=O)NC(CCC(=O)O)C(=O)O)cc1` (centres unmarked) [compound 7] were, in that order, 0.97, 0.99, 1.05, 0.77 and 1.05.
Turning to `Nc1nc2[nH]cc(CCc3ccc(C(=O)N[C@@H](CCC(=O)O)C(=O)O)cc3)c2c(=O)[nH]1` [PTX, pemetrexed], the “fold changes relative to vehicle control” value in assay [1] came out at 1.14; in assay [2], 0.98; in assay [3], 1.08; in assay [4] it was 0.96; in assay [5], 0.99.
Turning to `Nc1nc2cccc(-c3ccccc3)c2n1Cc1ccc(Cl)c(Cl)c1` [compound 3], the “fold changes relative to vehicle control” value in assay [1] (setting [6]) is given as 0.84 fold; in assay [1] (setting [7]), 0.95 fold; in assay [2] (protein AHCY, HeLa) it was 0.86; in assay [3] (protein CPS1, HeLa) it was 1.09; in assay [4] (protein CAND1, HeLa) it was 0.86; in assay [5] (captured protein NUP210, HeLa), 0.86.
